This note sets out measurements from patent US20220245798A1, “TISSUE STEM CELL COUNTING […] USES THEREOF” (Asymmetrex LLC, priority 2021, published 2022).

This series relates to HSCs in CD34+-selected normal human bone marrow cells. Kind of series: PSCK-RIFS tissue stem cell counting and cell kinetics determination, serial culture of BM-CD34+ cells with stem cell-active agents. Format: cell-based. Conditions: for Committed Progenitor Cells CC Time / Stem Cells Asym CC Time / Stem Cells SSR Rate, RS / Stem Cells Sym CC Time / Stem Cells Initial Fraction: BM-CD34+ serial culture, agent supplemented at all times; for Committed Progenitor Cells CC Time / Stem Cells Asym CC Time / Stem Cells SSR Rate, RS / Stem Cells Sym CC Time: mean of n=5; for Stem Cells Initial Fraction: mean of n=5 PSCK-RIFS determinations. The text has this:
Strain WI-38 pre-senescent human lung cells were purchased from the American Type Culture Collection (Manassas, Va., USA; ATCC #CCL-75; passage 15). Expanded human liver stem cell strain SACK-XS 12(3) was purchased from Kerafast (Boston, Mass., USA; #EJS002). CD34+-selected normal human bone marrow cells were purchased from the ATCC (#PCS-800-012). CD34+-selected human umbilical cord blood cells were purchased from STEMCELL Technologies, Inc. (Cat#70008; Cambridge, Mass.).
Expanded human liver stem cell strain SACK-XS 12(3) cells were cultured in the supplier's recommended culture medium without inclusion of xanthosine. CD34+-selected normal human bone marrow cells were cultured in StemSpan™ SFEM II medium (STEMCELL Technologies, Inc., Cambridge, Mass., USA; #09655) supplemented with StemSpan™ CD34+ Expansion Supplement (STEMCELL Technologies, Inc., #02691). SACK-XS 12(3) serial cultures were initiated in 6-well plates with 325,000 viable cells. CD34+ cell serial cultures were initiated as 24-well suspension cultures with 65,000 viable cells. For both cell types, ⅓ of total cells were transferred to a new culture well every 96±4 hour interval. Tested agents were supplemented at all times during the culture period.
Based on the determined stem cell symmetric self-renewal frequency (RS), in the early studies presented herein a correction was applied to account for this effect. The correction is determined by the following Equation 1:
NSo corrected=NS1st interval/(RSe^kt+RA−RDS) (Equation 1)
In Equation 1, NS1st interval=NS peak value determined from the initial interval of PSCK; t=the time to the first interval NS peak in the respective simulation; k=ln 2/GTS, the mean generation time for symmetrically self-renewing stem cells; RS, RA, and RDS are mean cell kinetics factors determined by the originating PSCK-RIFS analysis (See EXAMPLE 4). The mean of 10 independent PSCK NS simulations was used for correction. Equation 1 was applied to determine the initial stem cell fraction whenever a significant RS value was found.
The simulation confidence level was estimated from the root mean squared error of the comparison of simulated cumulative population doubling (CPD) data to experimental CPD data. Student's t-test (2-tailed) was used to calculate p-values for confidence for cell kinetics factors determined by the PSCK-RIFS software (See also EXAMPLE 4) with respect to 0.0 and their 95% confidence intervals. Student's t-test (2-tailed) was also used to calculate p-values for confidence for differences in the value of cell kinetics factors derived under different culture conditions.
FIGS. 1 and 11 outline the application of the PSCK-RIFS software. A tissue cell preparation of interest is first counted (including viable cell determination; NC in Table 5) and used to initiate serial cultures, typically in triplicate.
At an experimenter defined interval (SPLI in Table 5), cultures are counted—including viable cell count—and a constant fraction of the cells or number of the cells is transferred to a new culture dish of the same type (FIG. 11). The PSCK software is designed to be versatile for accommodating different formats for the culture time period and/or the number of cells transferred. The total cell count data are transformed into plots of cumulative population doublings (CPD); and the viable cell fraction is used to estimate the dead cell fractions for transient cells (RDT in Table 5) and terminal cells (RDTM in Table 5), which are similarly very abundant during most of the culture period.
FIG. 1 depicts the various inputs that are used by the PSCK software to calculate CPD curve simulations for the period defined by the experimental CPD data. Using the cellular model illustrated in FIG. 1, the software inputs measured values (“m” superscripted in FIG. 1) and discovered factors (“d” superscripted in FIG. 1) obtained from the RIFS software. An important aspect of the PSCK-RIFS method is that there is no underlying mathematical algorithm. […]

Regarding `O=NN(CCCl)C(=O)NCCCl` [BCNU, bis-chloroethylnitrosourea], the “Committed Progenitor Cells CC Time” value is recorded as 6.4 h (NS); the “Stem Cells Asym CC Time” value is 7.6 (NS) h; the “Stem Cells SSR Rate, RS” value is given as 0.0 (NS); the “Stem Cells Sym CC Time” value is 8.2 h (NS). Besides, the “Stem Cells Initial Fraction” value is listed as 1.3 × 10^−4 (0.001). The “change in determined HSC number” value (within the first four days of culture) is reported as “decrease”.

`O=c1[nH]c(=O)c2ncn([C@@H]3O[C@H](CO)[C@@H](O)[C@H]3O)c2[nH]1` [Xanthosine, xanthosine]: the “Committed Progenitor Cells CC Time” value is recorded as 8.2 h (NS); the “Stem Cells Asym CC Time” value is listed as 6.6 h (NS); the “Stem Cells SSR Rate, RS” value was 3.2 × 10^−3 (0.037); the “Stem Cells Sym CC Time” value is 9.4 h (NS). Further, the “Stem Cells Initial Fraction” value is listed as 3.5 × 10^−3 (0.001). Further, the “change in stem cell fraction of supplemented cultures” value (BM-CD34+ cultures) is reported as “increases”. The “increase in HSC number” value (after only 4 days of culture) is listed as 10 fold. For the same molecule, the “RS, rate of symmetric self-renewal, of HSC divisions” value (increase from undetectable, p=0.037) is 0.32%.
